26 compounds from patent publication US6979686B1, “Substituted pyrazoles as p38 kinase inhibitors” (Pharmacia Corporation, priority 2001, dated 2005) can be followed below.

The structures appear in SMILES notation. pIC50: −log10 of the molar value.

T1 sequence (Q16539 whole entry): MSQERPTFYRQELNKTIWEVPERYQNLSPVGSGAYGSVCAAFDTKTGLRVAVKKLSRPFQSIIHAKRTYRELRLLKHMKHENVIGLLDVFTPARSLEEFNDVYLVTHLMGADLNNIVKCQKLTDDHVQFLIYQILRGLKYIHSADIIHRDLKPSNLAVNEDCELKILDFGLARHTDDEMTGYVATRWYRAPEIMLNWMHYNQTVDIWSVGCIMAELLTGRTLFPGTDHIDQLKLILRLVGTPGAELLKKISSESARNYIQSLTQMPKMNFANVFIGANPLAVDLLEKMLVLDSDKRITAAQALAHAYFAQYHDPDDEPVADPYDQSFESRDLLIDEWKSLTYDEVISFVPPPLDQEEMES

This assay concerns the target T1, human p38 kinase alpha (Homo sapiens, UniProt Q16539).
T1 construct: GST (N, cleaved yes); made in house; host or cells: E. coli DH10B
Briefly: p38 kinase in vitro assay, phosphorylation of biotinylated PHAS-I with 32P-ATP. Format: biochemical. As to conditions: in vitro P38-alpha kinase; read-out: P38 alpha kinase IC50.
The term pIC50 denotes the negative decadic logarithm of the IC50, by convention in mol/L. `O=S(=O)(NCCCc1[nH]nc(-c2ccc(F)cc2)c1-c1ccncc1)c1ccc(-c2ccccc2)cc1` [Example B-1286]: the pIC50 is 6.82.
On to `Cc1c(C)c(S(=O)(=O)NCCCc2[nH]nc(-c3ccc(F)cc3)c2-c2ccncc2)c(C)c2c1OC(C)(C)CC2` [Example B-1287], for which the negative-log IC50 (pIC50) was 6.60.
The same measure for `O=S(=O)(NCCCc1[nH]nc(-c2ccc(F)cc2)c1-c1ccncc1)c1ccc(-c2ccccn2)s1` [Example B-1288]: 6.82; for `O=S(=O)(NCCCc1[nH]nc(-c2ccc(F)cc2)c1-c1ccncc1)c1cc(S(=O)(=O)c2ccccc2)cs1` [Example B-1289]: 6.14.
The same measure for `O=S(=O)(NCCCc1[nH]nc(-c2ccc(F)cc2)c1-c1ccncc1)c1ccc(-c2ccon2)s1` [Example B-1290]: 6.59; for `Cn1cnc(S(=O)(=O)NCCCc2[nH]nc(-c3ccc(F)cc3)c2-c2ccncc2)c1` [Example B-1291]: 7.01.
The same measure for `CN(C)S(=O)(=O)NCCCc1[nH]nc(-c2ccc(F)cc2)c1-c1ccncc1` [Example B-1292]: 8.00.
As for `O=S(=O)(NCCCc1[nH]nc(-c2ccc(F)cc2)c1-c1ccncc1)c1ccc(S(=O)(=O)c2ccccc2)s1` [Example B-1293], the negative logarithm of the IC50 (pIC50) is 6.51.
With `CS(=O)(=O)c1ccccc1S(=O)(=O)NCCCc1[nH]nc(-c2ccc(F)cc2)c1-c1ccncc1` [Example B-1294] the figure was 7.89; with `O=S(=O)(NCCCc1[nH]nc(-c2ccc(F)cc2)c1-c1ccncc1)c1cccc2cnccc12` [Example B-1295], 7.10; with `Cc1ccc(S(C)(=O)=O)cc1S(=O)(=O)NCCCc1[nH]nc(-c2ccc(F)cc2)c1-c1ccncc1` [Example B-1296], 7.42.
The same measure for `NS(=O)(=O)c1ccc(CCNC(=O)NCCCc2[nH]nc(-c3ccc(F)cc3)c2-c2ccncc2)cc1` [Example B-1307]: 8.05.
With `COCCNC(=O)NCCCc1[nH]nc(-c2ccc(F)cc2)c1-c1ccncc1` [Example B-1311] the figure was 7.30.
`O=C(NCCCc1[nH]nc(-c2ccc(F)cc2)c1-c1ccncc1)NCCN1CCCCC1` [Example B-1313]: the pIC50 was 7.46.
The same measure for `CN1CCCC1CCNC(=O)NCCCc1[nH]nc(-c2ccc(F)cc2)c1-c1ccncc1` (centres unmarked) [Example B-1315]: 7.26.
The same measure for `O=C(NCCCc1[nH]nc(-c2ccc(F)cc2)c1-c1ccncc1)NC1CCN(Cc2ccccc2)CC1` [Example B-1320]: 7.33; for `Cc1ccccc1C(=O)NCCCc1[nH]nc(-c2ccc(F)cc2)c1-c1ccncc1` [Example B-1321]: 6.33; for `O=C(NCCCc1[nH]nc(-c2ccc(F)cc2)c1-c1ccncc1)c1ccc(Cl)cc1` [Example B-1322]: 6.92.
With `Cc1ccc(C(=O)NCCCc2[nH]nc(-c3ccc(F)cc3)c2-c2ccncc2)cc1` [Example B-1323] the figure was 7.89.
As to `O=C(NCCCc1[nH]nc(-c2ccc(F)cc2)c1-c1ccncc1)c1cccc(C(F)(F)F)c1` [Example B-1324], the negative logarithm of the IC50 (pIC50) was 6.80.
The same measure for `O=C(NCCCc1[nH]nc(-c2ccc(F)cc2)c1-c1ccncc1)c1cc2ccccc2s1` [Example B-1325]: 6.57.
The same measure for `CC(C)c1cc(C(C)C)c(C(=O)NCCCc2[nH]nc(-c3ccc(F)cc3)c2-c2ccncc2)c(C(C)C)c1` [Example B-1326]: 7.04; for `N#Cc1cccc(C(=O)NCCCc2[nH]nc(-c3ccc(F)cc3)c2-c2ccncc2)c1` [Example B-1328]: 7.49; for `O=C(NCCCc1[nH]nc(-c2ccc(F)cc2)c1-c1ccncc1)c1cccc2ccccc12` [Example B-1329]: 6.18.
With `O=C(NCCCc1[nH]nc(-c2ccc(F)cc2)c1-c1ccncc1)c1ccc(F)c(F)c1` [Example B-1330] the figure was 7.28.
Consider `O=C(NCCCc1[nH]nc(-c2ccc(F)cc2)c1-c1ccncc1)c1cc(F)cc(F)c1` [Example B-1331], for which the pIC50 is 8.40.
